Assay results published in patent US7524964B2, “Tetrahydrothiopyrano pyrazole cannabinoid modulators” (Janssen Pharmaceutica NV, priority 2005, dated 2009).
Read-outs that look alike come from different tables or passages of the source.

Tests used:
human CB1 receptor = human CB1 receptor (Homo sapiens, UniProt P21554); assay: Binding assay, cannabinoid CB1 receptor ([3H]-CP-55,940 displacement); set-up: expressed in transfected cells; host or cells: SK-N-MC cells, pcDNA3 CB-1 (human), semi-purified membranes; conditions: for inhibition at 0.2 µM: test concentration 0.2 μM (superscript a), read-out: CB1 binding percent inhibition
Experimental: (§1) Binding Assay for CB1 or CB2 Agonists or Inverse Agonists
(§2) The human CB-1 and CB-2 receptors were stably expressed in SK-N-MC cells transfected with pcDNA3 CB-1 (human) or pcDNA3 CB-2 (human). The cells were grown in T-180 cell culture flasks under standard cell culture conditions at 37° C. in a 5% CO2 atmosphere. The cells were harvested by trypsinization and homogenized in a homogenization buffer (10 mM Tris, 0.2 mM MgCl2, 5 mM KCl, with protease inhibitors aprotinin, leupeptin, pepstatin A and bacitracin) and centrifuged (2000 g). The supernatant was then centrifuged in 2M sucrose (31,300 g) to produce a semi-purified membrane pellet. The pellet was resuspended in homogenization and store at −80° C.
(§3) On the day of the assay, the pellet was thawed on ice and diluted in assay buffer (50 mM Tris-HCl, 5 mM MgCl2, 2.5 mM EDTA, 0.5 mg/mL fatty acid free bovine serum albumin, pH 7.5). The diluted membrane was added with buffer, test compound or standard and the radioligand [H]^3+-CP-55,940_(0.2 nM) to the wells of a 96-well polypropylene plate. Non-specific binding was measured in wells containing 10 uM WIN 55,212. The plate was covered and incubated for 90 minutes at 30° C. The contents were then aspirated onto a Packard Unifilter G/C filter bottom plate prewet with 0.5% polyethyleneimine. The wells of the polypropylene plate were rinsed and aspirated seven times with a 0.9% saline-0.5% Tween 20 solution. The Unifilter plate was dried, a scintillation cocktail was added to each well and the counts representing binding were quantitated in a TopCount scintillation counter.
(§4) The IC50 binding values for compounds tested were calculated by linear regression and were obtained from studies in which varying compound concentrations were used. Where an IC50 was not obtained, test results are provided as percent inhibition at a test concentration of ^a0.2 μM, ^b1 μM or ^c10 μM.

human CB-2 receptor = molecular target: T1, human CB-2 receptor (Homo sapiens, UniProt P34972); assay: Binding assay, cannabinoid CB2 receptor ([3H]-CP-55,940 displacement); conditions: read-out: CB2 binding percent inhibition
T1 construct: expressed in transfected cells; host or cells: SK-N-MC cells, pcDNA3 CB-2 (human), semi-purified membranes
Experimental: as §1, §2, §3, §4

[1] = test concentration 0.2 μM (superscript a)

Sequence of human CB1 receptor (P21554 whole entry): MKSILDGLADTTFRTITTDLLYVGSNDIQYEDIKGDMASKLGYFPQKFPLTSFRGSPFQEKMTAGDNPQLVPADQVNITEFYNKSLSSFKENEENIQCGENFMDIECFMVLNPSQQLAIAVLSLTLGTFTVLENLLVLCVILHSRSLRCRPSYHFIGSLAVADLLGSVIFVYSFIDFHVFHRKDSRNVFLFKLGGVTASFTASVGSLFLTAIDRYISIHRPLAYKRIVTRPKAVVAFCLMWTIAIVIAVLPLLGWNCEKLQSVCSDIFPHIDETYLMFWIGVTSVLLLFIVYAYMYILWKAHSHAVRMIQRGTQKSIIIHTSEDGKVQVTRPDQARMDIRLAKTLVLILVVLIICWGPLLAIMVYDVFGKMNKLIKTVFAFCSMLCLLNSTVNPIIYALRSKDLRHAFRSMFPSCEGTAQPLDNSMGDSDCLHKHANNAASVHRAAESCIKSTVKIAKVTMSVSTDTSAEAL
T1 sequence (P34972 whole entry): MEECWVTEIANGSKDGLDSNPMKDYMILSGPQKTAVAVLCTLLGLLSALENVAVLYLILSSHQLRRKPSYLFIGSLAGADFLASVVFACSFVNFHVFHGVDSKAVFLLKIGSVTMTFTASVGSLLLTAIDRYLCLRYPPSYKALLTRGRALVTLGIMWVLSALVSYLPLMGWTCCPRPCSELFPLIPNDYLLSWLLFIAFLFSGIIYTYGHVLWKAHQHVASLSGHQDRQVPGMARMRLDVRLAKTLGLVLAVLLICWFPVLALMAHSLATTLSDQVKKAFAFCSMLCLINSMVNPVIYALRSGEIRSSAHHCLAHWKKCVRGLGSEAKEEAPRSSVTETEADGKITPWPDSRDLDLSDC

Structure (SMILES): C[C@@H](NS(=O)(=O)/C=C/c1nn(-c2ccc(F)cc2F)c2c1CSCC2Cc1cccc(F)c1)C1CCCCC1 (stereo partly drawn) [Cpd 39, (E)-2-[1-(2,4-difluoro-phenyl)-7-(3-fluoro-benzyl)-1,4,6,7-tetrahydro-thiopyrano[4,3-c]pyrazol-3-yl]-ethenesulfonic acid [(1R)-1-cyclohexyl-ethyl]-amide]
- inhibition at 0.2 µM (human CB1 receptor): 55%
- inhibition at 0.2 µM (human CB-2 receptor; [1]): 37%

Structure (SMILES): O=S(=O)(/C=C/c1nn(-c2ccc(F)cc2F)c2c1CSCC2Cc1cccc(F)c1)NN1CCCCC1 (stereo not shown) [Cpd 40, (E)-2-[1-(2,4-difluoro-phenyl)-7-(3-fluoro-benzyl)-1,4,6,7-tetrahydro-thiopyrano[4,3-c]pyrazol-3-yl]-ethenesulfonic acid piperidin-1-ylamide]
- inhibition at 0.2 µM (human CB1 receptor): 12%
- inhibition at 0.2 µM (human CB-2 receptor; [1]): 10%

Structure (SMILES): O=S(=O)(/C=C/c1nn(-c2ccc(F)cc2F)c2c1CSCC2Cc1cccc(F)c1)NN1CCOCC1 (stereo not shown) [Cpd 41, (E)-2-[1-(2,4-difluoro-phenyl)-7-(3-fluoro-benzyl)-1,4,6,7-tetrahydro-thiopyrano[4,3-c]pyrazol-3-yl]-ethenesulfonic acid morpholin-4-ylamide]
- inhibition at 0.2 µM (human CB1 receptor): 9%
- inhibition at 0.2 µM (human CB-2 receptor; [1]): 8%

Structure (SMILES): C[C@H](NS(=O)(=O)/C=C/c1nn(-c2ccc(F)cc2F)c2c1CS(=O)(=O)CC2Cc1cccc(F)c1)c1ccccc1 (stereo partly drawn) [Cpd 42, (E)-2-[1-(2,4-difluoro-phenyl)-7-(3-fluoro-benzyl)-5,5-dioxo-4,5,6,7-tetrahydro-1H-5λ^6-thiopyrano[4,3-c]pyrazol-3-yl]-ethenesulfonic acid [(1S)-1-phenyl-ethyl]-amide]
- inhibition at 0.2 µM (human CB1 receptor): 31%
- inhibition at 0.2 µM (human CB-2 receptor; [1]): 20%

Structure (SMILES): C[C@@H](NS(=O)(=O)/C=C/c1nn(-c2ccc(F)cc2F)c2c1CS(=O)(=O)CC2Cc1cccc(F)c1)C1CCCCC1 (stereo partly drawn) [Cpd 43, (E)-2-[1-(2,4-difluoro-phenyl)-7-(3-fluoro-benzyl)-5,5-dioxo-4,5,6,7-tetrahydro-1H-5λ^6-thiopyrano[4,3-c]pyrazol-3-yl]-ethenesulfonic acid [(1R)-1-cyclohexyl-ethyl]-amide]
- inhibition at 0.2 µM (human CB1 receptor): 41%
- inhibition at 0.2 µM (human CB-2 receptor; [1]): 11%

Structure (SMILES): O=S1(=O)Cc2c(/C=C/S(=O)(=O)NN3CCOCC3)nn(-c3ccc(F)cc3F)c2C(Cc2cccc(F)c2)C1 (stereo not shown) [Cpd 44, (E)-2-[1-(2,4-difluoro-phenyl)-7-(3-fluoro-benzyl)-5,5-dioxo-4,5,6,7-tetrahydro-1H-5λ^6-thiopyrano[4,3-c]pyrazol-3-yl]-ethenesulfonic acid morpholin-4-ylamide]
- inhibition at 0.2 µM (human CB1 receptor): 3%
- inhibition at 0.2 µM (human CB-2 receptor; [1]): 9%

Structure (SMILES): O=S1(=O)Cc2c(/C=C/S(=O)(=O)NN3CCCCC3)nn(-c3ccc(F)cc3F)c2C(Cc2cccc(F)c2)C1 (stereo not shown) [Cpd 45, (E)-2-[1-(2,4-difluoro-phenyl)-7-(3-fluoro-benzyl)-5,5-dioxo-4,5,6,7-tetrahydro-1H-5λ^6-thiopyrano[4,3-c]pyrazol-3-yl]-ethenesulfonic acid piperidin-1-ylamide]
- inhibition at 0.2 µM (human CB1 receptor): 33%
- inhibition at 0.2 µM (human CB-2 receptor; [1]): 8%

Structure (SMILES): C[C@H](NS(=O)(=O)/C=C/c1nn(-c2ccc(Cl)cc2Cl)c2c1CSCC2Cc1cccc(Cl)c1)c1ccccc1 (stereo partly drawn) [Cpd 46, (E)-2-[7-(3-chloro-benzyl)-1-(2,4-dichloro-phenyl)-1,4,6,7-tetrahydro-thiopyrano[4,3-c]pyrazol-3-yl]-ethenesulfonic acid [(1S)-1-phenyl-ethyl]-amide]
- inhibition at 0.2 µM (human CB1 receptor): 43%
- inhibition at 0.2 µM (human CB-2 receptor; [1]): 18%

Structure (SMILES): C[C@H](NS(=O)(=O)/C=C/c1n[nH]c2c1CSCC2Cc1cccc(F)c1)c1ccccc1 (stereo partly drawn) [Cpd 47, (E)-2-[7-(3-fluoro-benzyl)-1,4,6,7-tetrahydro-thiopyrano[4,3-c]pyrazol-3-yl]-ethenesulfonic acid [(1S)-1-phenyl-ethyl]-amide]
- inhibition at 0.2 µM (human CB1 receptor): 24%
- inhibition at 0.2 µM (human CB-2 receptor; [1]): 26%

Structure (SMILES): C[C@@H](NS(=O)(=O)/C=C/c1n[nH]c2c1CSCC2Cc1cccc(F)c1)C1CCCCC1 (stereo partly drawn) [Cpd 48, (E)-2-[7-(3-fluoro-benzyl)-1,4,6,7-tetrahydro-thiopyrano[4,3-c]pyrazol-3-yl]-ethenesulfonic acid [(1R)-1-cyclohexyl-ethyl]-amide]
- inhibition at 0.2 µM (human CB1 receptor): 15%
- inhibition at 0.2 µM (human CB-2 receptor; [1]): 11%

Structure (SMILES): CCOC(=O)[C@@H]1C2CCC(C2)[C@@H]1NC(=O)c1nn(-c2ccc(F)cc2F)c2c1CS(=O)(=O)C[C@@H]2Cc1cccc(F)c1 (stereo partly drawn) [Cpd 49, (2R,3S)-3-{[1-(2,4-difluoro-phenyl)-(7R)-(3-fluoro-benzyl)-5,5-dioxo-4,5,6,7-tetrahydro-1H-5λ^6-thiopyrano[4,3-c]pyrazole-3-carbonyl]-amino}-bicyclo[2.2.1]heptane-2-carboxylic acid ethyl ester]
- inhibition at 0.2 µM (human CB1 receptor): 33%
- inhibition at 0.2 µM (human CB-2 receptor; [1]): 6%

Structure (SMILES): CCOC(=O)[C@@H]1C2CCC(C2)[C@@H]1NC(=O)c1nn(-c2ccc(F)cc2F)c2c1CS(=O)(=O)C[C@H]2Cc1cccc(F)c1 (stereo partly drawn) [Cpd 50, (2R,3S)-3-{[1-(2,4-difluoro-phenyl)-(7S)-(3-fluoro-benzyl)-5,5-dioxo-4,5,6,7-tetrahydro-1H-5λ^6-thiopyrano[4,3-c]pyrazole-3-carbonyl]-amino}-bicyclo[2.2.1]heptane-2-carboxylic acid ethyl ester]
- inhibition at 0.2 µM (human CB1 receptor): 50%
- inhibition at 0.2 µM (human CB-2 receptor; [1]): 24%

Structure (SMILES): O=C(N[C@@H]1c2ccccc2C[C@@H]1O)c1nn(-c2ccc(F)cc2F)c2c1CS(=O)(=O)CC2Cc1cccc(F)c1 (stereo partly drawn) [Cpd 51, 1-(2,4-difluoro-phenyl)-7-(3-fluoro-benzyl)-5,5-dioxo-4,5,6,7-tetrahydro-1H-5λ^6-thiopyrano[4,3-c]pyrazole-3-carboxylic acid [(1R,2S)-2-hydroxy-indan-1-yl]-amide]
- inhibition at 0.2 µM (human CB1 receptor): 35%
- inhibition at 0.2 µM (human CB-2 receptor; [1]): 9%

Structure (SMILES): O=C(NNc1ccc(Cl)cc1Cl)c1nn(-c2ccc(Cl)cc2Cl)c2c1CSC/C2=C\c1ccc(F)cc1 [Cpd 52, (7Z)-1-(2,4-dichloro-phenyl)-7-(4-fluoro-benzylidene)-1,4,6,7-tetrahydro-thiopyrano[4,3-c]pyrazole-3-carboxylic acid N′-(2,4-dichloro-phenyl)-hydrazide]
- inhibition at 0.2 µM (human CB1 receptor): 66%
- inhibition at 0.2 µM (human CB-2 receptor; [1]): 28%

Structure (SMILES): O=C(NNc1ccc(Cl)cc1Cl)c1nn(-c2ccc(Cl)cc2Cl)c2c1CS(=O)(=O)C/C2=C\c1ccc(F)cc1 [Cpd 53, (7Z)-1-(2,4-dichloro-phenyl)-7-(4-fluoro-benzylidene)-5,5-dioxo-4,5,6,7-tetrahydro-1H-5λ^6-thiopyrano[4,3-c]pyrazole-3-carboxylic acid N′-(2,4-dichloro-phenyl)-hydrazide]
- inhibition at 0.2 µM (human CB1 receptor): 55%
- inhibition at 0.2 µM (human CB-2 receptor; [1]): 30%

Structure (SMILES): O=C(NN1CCCCC1)c1nn(-c2ccc(Cl)cc2Cl)c2c1CSC/C2=C\c1ccc(F)cc1 [Cpd 54, (7Z)-1-(2,4-dichloro-phenyl)-7-(4-fluoro-benzylidene)-1,4,6,7-tetrahydro-thiopyrano[4,3-c]pyrazole-3-carboxylic acid piperidin-1-ylamide]
- IC50 (human CB1 receptor): 0.034 µM
- inhibition at 0.2 µM (human CB-2 receptor; [1]): 25%

Structure (SMILES): O=C(c1nn(-c2ccc(Cl)cc2Cl)c2c1CSC/C2=C\c1ccc(F)cc1)N1CCCCC1 [Cpd 55, (7Z)-[1-(2,4-dichloro-phenyl)-7-(4-fluoro-benzylidene)-1,4,6,7-tetrahydro-thiopyrano[4,3-c]pyrazol-3-yl]-piperidin-1-yl-methanone]
- inhibition at 0.2 µM (human CB1 receptor): 52%
- inhibition at 0.2 µM (human CB-2 receptor; [1]): 10%

Structure (SMILES): O=C(NN1CCCC1)c1nn(-c2ccc(Cl)cc2Cl)c2c1CSC/C2=C\c1ccc(F)cc1 [Cpd 56, (7Z)-1-(2,4-dichloro-phenyl)-7-(4-fluoro-benzylidene)-1,4,6,7-tetrahydro-thiopyrano[4,3-c]pyrazole-3-carboxylic acid pyrrolidin-1-ylamide]
- IC50 (human CB1 receptor): 0.035 µM
- inhibition at 0.2 µM (human CB-2 receptor; [1]): 15%

Structure (SMILES): O=C(c1nn(-c2ccc(Cl)cc2Cl)c2c1CSC/C2=C\c1ccc(F)cc1)N1CCCC1 [Cpd 57, (7Z)-[1-(2,4-dichloro-phenyl)-7-(4-fluoro-benzylidene)-1,4,6,7-tetrahydro-thiopyrano[4,3-c]pyrazol-3-yl]-pyrrolidin-1-yl-methanone]
- inhibition at 0.2 µM (human CB1 receptor): 56%
- inhibition at 0.2 µM (human CB-2 receptor; [1]): 21%

Structure (SMILES): O=C(N[C@@H]1c2ccccc2C[C@@H]1O)c1nn(-c2ccc(Cl)cc2Cl)c2c1CSC/C2=C\c1ccc(F)cc1 [Cpd 58, (7Z)-1-(2,4-dichloro-phenyl)-7-(4-fluoro-benzylidene)-1,4,6,7-tetrahydro-thiopyrano[4,3-c]pyrazole-3-carboxylic acid [(1R,2S)-2-hydroxy-indan-1-yl]-amide]
- IC50 (human CB1 receptor): 0.04 µM
- inhibition at 0.2 µM (human CB-2 receptor): 25%
